Laboratory results published in patent publication US11098009B2, “Amidine substituted analogues and uses thereof” (Verlyx Pharma Inc., priority 2016, dated 2021).
pIC50: −log10 of the molar value. Structures can show the parent of a compound that is named as a salt.

Tests used:
[1] = test system: DSS-induced acute colitis; assay: DSS-induced acute colitis in mice (Disease Activity Index); format: in vivo, C57BL/6 ELITE mice; conditions: 2.5% DSS; 2.5 and 5 mg/kg IP q.d. D1-D6, termination D7; FIG. 5
Description: Dextran Sulfate Sodium 2.5% stocks were prepared by adding tap water in the pre-weighed powder. DSS solutions will be changed every 3 days for all groups, i.e. on Day 1 (D1) and Day 4 (D4).
Formulations for Intraperitoneal Administration: • Vehicle: sterile double distilled water (DDW) • For Pentamidine (Penta) and Compounds 2 and 4, the compounds were dissolved in DDW and dosed at 2 mL/kg to yield the indicated doses. In-Vivo Study
Male C57BL/6 ELITE mice of ˜7-8 weeks old were used. After 5-day acclimatization period in animal facility, all mice were weighed and given tap water containing 2.5% DSS on Day 1, treatment also starts on Day 1.
Animals were dosed from D1 to D6, once daily by IP injection (2 mL/kg). Animals were terminated on D7. The Disease Activity Index (DAI) scale is based on the evaluation of different parameters characterizing experimental colitis induction and progression. Body weight, presence of gross blood in the feces and stool consistency will be recorded daily.
• Weight loss: 0=none; 1=1 to 5%; 2=5 to 10%; 3=_10 to 20%; 4=>20% • Stool consistency: 0=normal; 2=loose; 4=diarrhea • Rectal bleeding: 0=normal; 2=occult bleeding; 4=gross bleeding
On Day 7, mice will be weighed and disease scores evaluated, and then euthanized by CO2 inhalation.

HCT-116 cells = assay: HCT assay: real-time proliferation assay using xCELLigence system; format: cell-based; conditions: xCELLigence impedance
Description: The compounds were evaluated in a proliferation assay using HCT-116 cells using an xCELLigence system. Briefly, the xCELLigence system monitors cellular events in real time by measuring electrical impedance across interdigitated micro-electrodes integrated on the bottom of tissue culture E-Plates. The impedance measurement provides quantitative information about the biological status of the cells, including cell number, viability, and morphology. Real-time proliferation assays were then to determine the IC50 values. All proliferation assays start 24 hours after the transfection.

[2] = test system: GalN/LPS fulminant liver injury; assay: GalN/LPS fulminant liver injury model, Study b (serum ALT); format: in vivo, C57BL/6 mice; conditions: for Hepatoprotection at lower doses: 10 mg/kg (4.3 and 8.6 μmole/kg) for C2, 5 and 10 mg/kg (3.3 and 6.6 μmole/kg) for C4, 5 mg/kg (6.3 mole/kg [sic]) for C5; for Hepatoprotection in the model (low ALT activity levels following GalN/LPS): FIG. 3; for ALT: GalN-LPS 700 mg/kg - 10 μg/kg, 6 hours post injury, WFI control 5989
Description: (§1) Mice were maintained under 12 h light/dark cycles with unlimited access to food and water. Study was performed in 6- to 14-week old male mice. C57BL/6 mice were used. Mice are first injected with pentamidine or Example 2 compound (IP injection). […]
(§2) All doses were administered IP to six mice (n=6), 30 minutes prior to the injection of the GalN and LPS, when applicable to the group. Blood samples were collected exactly 6 hours post GalN/LPS injections, or 6.5 hours after vehicle injections.
(§3) The tested compounds were dosed IP 30 minutes prior to the co-treatment with galactosamine (GalN) and endotoxin (Lipopolysaccharide) LPS. Mice were sacrificed at 6 hours after GalN/LPS for ALT analysis. The analysis of alanine transaminase (ALT) serum levels allows the evaluation of the hepatoprotective, anti-TNF-α, anti-inflammatory and/or anti-fibrotic activity.

[3] = test system: GalN/LPS fulminant liver injury; assay: GalN/LPS fulminant liver injury model, Study a (survival); format: in vivo, C57BL/6 mice
Description: A Galactosamine/Liposaccharide (GalN/LPS) fulminant liver injury model may be used to evaluate the anti-inflammatory, anti-TNFα and hepatoprotective properties of the compound of the description.
Mice were maintained under 12 h light/dark cycles with unlimited access to food and water. Study was performed in 6- to 14-week old male mice. C57BL/6 mice were used. Mice are first injected with pentamidine or Example 2 compound (IP injection). 30 minutes later, liver injury is induced by intraperitoneal injections of 100 μg/kg of LPS (E. coli 0111:B4) and 700 mg/kg of GalN (Sigma) dissolved in phosphate-buffered saline (PBS).
The tested compounds were be dosed IP 30-minutes prior to the co-treatment with galactosamine (GalN) and endotoxin (Lipopolysaccharide) LPS. Mice were either sacrificed at 6.5 hours after GalN/LPS for ALT analysis, or kept for longer periods to evaluate survival. The analysis of alanine transaminase (ALT) serum levels and histological observations allow the evaluation of the hepatoprotective, anti-TNF-α, anti-inflammatory and/or anti-fibrotic activity.
Survival was evaluated at two time points, i.e. 8 and 23 hours. In controls group receiving PBS prior to the GalN/LPS liver injury, no mice survived 8 hours. […] In the case of trihexamidine isethionate, all mice survived more than 23 hours with 10 mg/kg (8.6 μmole/kg) doses.

[4] = test system: GalN/LPS fulminant liver injury; assay: GalN/LPS fulminant liver injury model, Study c (serum ALT); format: in vivo, C57BL/6 mice; conditions: for ALT: GalN-LPS 700 mg/kg - 10 μg/kg, 6 hours post injury, WFI control 4403
Description: as §1, §2, §3

[5] = Homo sapiens, HCT-116, HCT-116 cells

pIC50 (HCT-116 cells; [5]) | Compound | Disease activity index [1] | Hepatoprotection at lower doses [2] | Hepatoprotection in the model (low ALT activity levels following GalN/LPS) [2] | ALT ([2]; IP dose 5 mg/kg in WFI) [IU/L] | ALT ([2]; IP dose 10 mg/kg in WFI) [IU/L] | also measured
4.42 | N=C(N)c1ccc(OCCCOc2cc(OCCCOc3ccc(C(=N)N)cc3)cc(OCCCOc3ccc(C(=N)N)cc3)c2)cc1 [Compound 4, Tripropamidine Formate] | reduced the disease activity index | Significant hepatoprotection | hepatoprotective | 731 | – | Hepatoprotection in the model (low ALT activity levels following GalN/LPS) ([4]; Study c, FIG. 4): dose-dependent hepatoprotection; Hepatoprotection at stated doses ([4]; Study c, 0.625 mg/kg, 1.25 mg/kg and 2.5 mg/kg IP): Significant hepatoprotection; ALT ([4]; Study c, IP dose 0.625 mg/kg in WFI): 1755 IU/L; ALT ([4]; Study c, IP dose 1.25 mg/kg in WFI): 1090 IU/L; ALT ([4]; Study c, IP dose 2.5 mg/kg in WFI): 555 IU/L
5.18 | N=C(N)c1ccc(OCCCCCCCCOc2cc(OCCCCCCCCOc3ccc(C(=N)N)cc3)cc(OCCCCCCCCOc3ccc(C(=N)N)cc3)c2)cc1 [Compound 3, Trioctamidine Isethionate] | – | – | – | – | – | –

Continued, compound first:

Compound | pIC50 (HCT-116 cells; [5]) | Disease activity index [1] | Hepatoprotection at lower doses [2] | Hepatoprotection in the model (low ALT activity levels following GalN/LPS) [2] | ALT ([2]; IP dose 5 mg/kg in WFI) [IU/L] | ALT ([2]; IP dose 10 mg/kg in WFI) [IU/L] | also measured
N=C(N)c1ccc(OCCCCCCOc2cc(OCCCCCCOc3ccc(C(=N)N)cc3)cc(OCCCCCCOc3ccc(C(=N)N)cc3)c2)cc1 [Compound 2, Trihexamidine Isethionate] | – | reduced the disease activity index | Significant hepatoprotection | hepatoprotective | 2184 | 890 | pIC50 (HCT-116 cells; HCT-116 cells): 5.58; Survival (all mice) post GalN/LPS ([3]; 10 mg/kg (8.6 μmole/kg) IP 30 min before GalN/LPS): more than 23 hours
N=C(N)c1ccc(OCCCCCOc2ccc(C(=N)N)cc2)cc1 [Pentamidine, pentamidine, reference compound] | – | – | – | – | – | – | Hepatoprotection (positive control) ([4]; Study c text, 50 mg/kg (84 μmole/kg)): benefited from hepatoprotective properties; Hepatoprotection (positive control) ([2]; 50 mg/kg (84 μmole/kg)): benefited from hepatoprotective properties; ALT ([2]; IP dose 50 mg/kg in WFI): 306 IU/L; Survival at 8 hours post GalN/LPS ([3]; 25 mg/kg IP 30 min before GalN/LPS): only the 40 mg/kg (67 μmole/kg) group benefited; Survival at 8 hours post GalN/LPS ([3]; 40 mg/kg (67 μmole/kg) IP 30 min before GalN/LPS, PBS controls: no mice survived 8 hours): benefited from hepatoprotective properties; Survival at 23 hours post GalN/LPS ([3]; 25 and 40 mg/kg IP 30 min before GalN/LPS): none survived
Triamidine Formate (Chain Average Mn 1000) [Compound 5] | – | – | Significant hepatoprotection | hepatoprotective | 1072 | 689 | HCT-116 IC50 (HCT-116 cells; HCT-116 cells): ∞
N=C(N)c1ccc(OCCCCCCOc2cc(OCCCCCCOc3ccc(C(=N)N)cc3)cc(OCCCCCCOc3ccc(C(=N)N)cc3)c2)cc1 [Compound 1, Trihexamidine Formate] | 5.72 | – | – | – | – | – | –
